Assay results as given in patent US5157049A, “Method of treating cancers sensitive to treatment with water soluble derivatives of taxol” (The United States of America as represented by the …, priority 1991, dated 1992).
Entries after “also recorded” stand apart in the source; their conditions may differ. Structures can show the parent of a compound that is named as a salt.

Columns and labels:
[1] = system: Human MX-1 Mammary Tumor Xenograft; test: Human MX-1 mammary tumor xenograft (3MBG5) assay; conditions: MX-1 xenograft; for % T/C (tumor weight change): day 11
Experimental: (§1) Another approach to make basic derivatives is based on the concept of taking an existing hydrolysable derivative and further modifying it to form a derivative that allows for stepwise hydrolysis.
(§2) ^a Screening was carried out under the auspices of the National Cance
(§3) Institute. For detailed explanations of procedures and data, see
(§4) Instruction 14, Screening Data Summary Interpretation and Outline of
(§5) Current Screen, Drug Evaluation Branch, Developmental Therapeutics
(§6) Program, Division of Cancer Treatment, National Cancer Institute,
(§7) Bethesda, Maryland 20892.
(§8) ^b Q01D × 09. Single dose for 9 days; given in milligrams per
(§9) kilogram body weight per injection.
(§10) ^c Abbreviations: survivors day 4, live animals on the fourth day of
(§11) testing/total animal; wt diff, g (T - C), the difference in body weight i
(§12) grams between test and control animals; % T/C, the median lifetime of tes
(§13) animals divided by the median lifetime of control animals, times 100; for
(§14) the solid tumor system % T/C is 100 × (change in treated tumor wt 1
(§15) day 11 - day 0)/change in control tumor wt.) if the tumor grows or 100
(§16) × (change in treated tumor wt./initial treated tumor wt.) if the
(§17) tumor regresses; cures, number of live animals on the last day of
(§18) evaluation for the B16 melanoma system (day 60) or number of animals
(§19) without measurable tumor on day 11 for the MX1 mammary tumor system.

Aqueous solubility = conditions: water
B16 Melanoma = test: Antitumor activity in the B16 melanoma system (NCI screen); conditions: B16, Q01D × 09
Experimental: as §1
Antitumor Activity in the B16 Melanoma System^a
as §2, §3, §4, §5, §6, §7, §8, §9, §10, §11, §12, §13, §14, §15, §16, §17, §18, §19

[2] = a number of test systems; cited from earlier work
[3] = water; background statement; cited from earlier work
tubulin = conditions: mechanism of action, Horwitz; cited from earlier work
[4] = numerous studies; cited from earlier work

CC(=O)O[C@H]1C(=O)[C@@]2(C)[C@H]([C@H](OC(=O)c3ccccc3)[C@]3(O)C[C@H](OC(=O)[C@H](OC(=O)CCCC(=O)NCCCN(C)C)[C@@H](NC(=O)c4ccccc4)c4ccccc4)C(C)=C1C3(C)C)[C@]1(OC(C)=O)CO[C@@H]1C[C@@H]2O [Example 25, HCl-Salt]
Survivors Day 4 ([1]; 2.5 mg/kg per injection): 6/6 | WT Diff, g (T - C) ([1]; 2.5 mg/kg per injection): -0.6 g | % T/C (tumor weight change) ([1]; 2.5 mg/kg per injection): 22% | Survivors Day 4 ([1]; 5 mg/kg per injection): 6/6 | WT Diff, g (T - C) ([1]; 5 mg/kg per injection): 0.1 g | % T/C (tumor weight change) ([1]; 5 mg/kg per injection): 1% | Survivors Day 4 ([1]; 10 mg/kg per injection): 6/6 | WT Diff, g (T - C) ([1]; 10 mg/kg per injection): -2.2 g | % T/C (tumor weight change) ([1]; 10 mg/kg per injection): 1% | Survivors Day 4 ([1]; 20 mg/kg per injection): 5/6 | WT Diff, g (T - C) ([1]; 20 mg/kg per injection): 0.3 g | cures (animals without measurable tumor on day 11) ([1]; 20 mg/kg per injection): 5 | % T/C (tumor weight change) ([1]; 20 mg/kg per injection, negative = regression): -100% | Survivors Day 4 ([1]; 40 mg/kg per injection): 5/6 | WT Diff, g (T - C) ([1]; 40 mg/kg per injection): -5.9 g | cures (animals without measurable tumor on day 11) ([1]; 40 mg/kg per injection): 5 | % T/C (tumor weight change) ([1]; 40 mg/kg per injection, negative = regression): -100% | aqueous solubility (in words) (Aqueous solubility): good solubility | solubility (Aqueous solubility): ~10000 µg/mL | % T/C (median lifetime) (B16 Melanoma; 1.2 mg/kg per injection): 123% | Survivors Day 4 (B16 Melanoma; 1.2 mg/kg per injection): 10/10 | WT Diff, g (T - C) (B16 Melanoma; 1.2 mg/kg per injection): -0.1 g | % T/C (median lifetime) (B16 Melanoma; 2.5 mg/kg per injection): 129% | Survivors Day 4 (B16 Melanoma; 2.5 mg/kg per injection): 10/10 | WT Diff, g (T - C) (B16 Melanoma; 2.5 mg/kg per injection): -0.1 g | % T/C (median lifetime) (B16 Melanoma; 5 mg/kg per injection): 188% | Survivors Day 4 (B16 Melanoma; 5 mg/kg per injection): 10/10 | WT Diff, g (T - C) (B16 Melanoma; 5 mg/kg per injection): 0.1 g | % T/C (median lifetime) (B16 Melanoma; 10 mg/kg per injection): 352% | Survivors Day 4 (B16 Melanoma; 10 mg/kg per injection): 10/10 | WT Diff, g (T - C) (B16 Melanoma; 10 mg/kg per injection): -0.1 g | cures (live animals day 60) (B16 Melanoma; 10 mg/kg per injection): 5 | % T/C (median lifetime) (B16 Melanoma; 20 mg/kg per injection): 352% | Survivors Day 4 (B16 Melanoma; 20 mg/kg per injection): 10/10 | WT Diff, g (T - C) (B16 Melanoma; 20 mg/kg per injection): 0 g | cures (live animals day 60) (B16 Melanoma; 20 mg/kg per injection): 6

CC(=O)O[C@H]1C(=O)[C@@]2(C)[C@H]([C@H](OC(=O)c3ccccc3)[C@]3(O)C[C@H](OC(=O)[C@H](O)[C@@H](NC(=O)c4ccccc4)c4ccccc4)C(C)=C1C3(C)C)[C@]1(OC(C)=O)CO[C@@H]1C[C@@H]2O [Taxol, taxol]
in vivo activity (in words) [2]: strong in vivo activity | aqueous solubility of taxol (in words) [3]: essentially insoluble in water; also recorded: extremely low aqueous solubility | promotion of tubulin assembly (in words) (tubulin): promoting tubulin assembly into stable aggregated structures which resist depolymerization by dilution, calcium ion, cold, and a number of microtubule-disrupting drugs | cytotoxicity (in words) [4]: highly cytotoxic | % T/C (median lifetime) (B16 Melanoma; 5 mg/kg per injection): 175% | Survivors Day 4 (B16 Melanoma; 5 mg/kg per injection): 10/10 | WT Diff, g (T - C) (B16 Melanoma; 5 mg/kg per injection): -0.2 g | % T/C (median lifetime) (B16 Melanoma; 10 mg/kg per injection): 139% | Survivors Day 4 (B16 Melanoma; 10 mg/kg per injection): 10/10 | WT Diff, g (T - C) (B16 Melanoma; 10 mg/kg per injection): 0 g | % T/C (median lifetime) (B16 Melanoma; 20 mg/kg per injection): 96% | Survivors Day 4 (B16 Melanoma; 20 mg/kg per injection): 10/10 | WT Diff, g (T - C) (B16 Melanoma; 20 mg/kg per injection): -0 g | % T/C (median lifetime) (B16 Melanoma; 40 mg/kg per injection): TOXIC | Survivors Day 4 (B16 Melanoma; 40 mg/kg per injection): 10/10 | WT Diff, g (T - C) (B16 Melanoma; 40 mg/kg per injection): -1.2 g
